{"source": "patent US20140170287A1", "about": "“METHODS FOR PREPARING AND COMPOSITIONS COMPRISING PLANT SEED-BASED OMEGA-3 FATTY ACIDS” (Living Healthy World LLC, priority 2012, published 2014)", "origin": "cited, not measured here", "tested_on": "C-reactive protein (CRP)", "conditions": "consumption of ALA in flaxseeds; CRP as marker of the inflammatory status in the cardiovascular system"}
{"compound": "CC/C=C\\C/C=C\\C/C=C\\CCCCCCCC(=O)O", "note": "[ALA, alpha-linolenic acid]", "values": [{"measurement": "decrease of blood levels of C-reactive protein (CRP)", "result": "10-15%"}]}
